Measurements: article PMC6429262, “Design and Synthesis of Novel Anti-Proliferative Emodin Derivatives and Studies on their Cell Cycle Arrest, Apoptosis Pathway and Migration” (Molecules, 2019)

Tests used:
[1] = test system: L02 cells; assay: Cytotoxic activity against human normal liver cells (L02); type: cell-based; conditions: Homo sapiens, L02, human normal liver L02 cells
[2] = test system: MCF-7 cells; assay: CellTiter-Glo Luminescent Cell Viability Assay, MCF-7; type: cell-based, human; conditions: for IC50: MCF-7 cells, 48 h, mean of three independent experiments
Experimental: (§1) The in vitro anti-proliferative activities of all the novel synthesized compounds were evaluated against HepG2 cells and MCF-7 cells by CellTiter-Glo® Luminescent Cell Viability Assay, using paclitaxel (a clinically used drug) as a positive control. Emodin (1) and compound 2 were also included for comparison.
(§2) HepG2 cells and MCF-7 cells were purchased from American Type Culture Collection (ATCC, Manassas, VA, USA). Cells were cultured in T75 flask (430641, Corning, New York, NY, USA), supplemented with high-glucose DMEM medium (Dulbecco’s modified Eagle’s medium, 11965-092, Gibco, New York, NY, USA) containing 10% Fetal bovine serum (FBS) and 1% penicillin (100 units/mL)-streptomycin (100 µg/mL) in a humidified incubator at 37 °C under 5% CO2 and 95% relative humidity (RH) atmosphere. The cells were harvested for metabolomics experiments using cell scrapers.
(§3) HepG2 cells and MCF-7 cells in 40 µL DMEM supplemented with 10% FBS were seeded at a density of 500 cells/well in 384-well cell culture plate (3570, Corning), respectively. After 24 h, the medium was substituted with fresh medium containing various sample solutions in DMSO (0.5%, v/v) at a dose range of 0.14–100 µM with 3-fold serial dilutions, and cells were cultured for another 48 h. Cells were cultured in medium without samples but 0.5% DMSO served as a control. All measurements were determined in triplicate for each treatment. After the sample treatment for 48 h, 20 µL CellTiter-Glo (G7573, Promega, Fitchburg, WI, USA) was added to each well containing cells and the contents were mixed for 2 min on an orbital shaker to induce cell lysis. The plates were then incubated at room temperature for 20 min to stabilize the luminescent signal. The luminescence was recorded on an Envision 2014 (Perkin Elmer, Waltham, MA, UAS). The IC50 values represented the samples’ concentrations required to inhibit 50% of cell proliferation and were calculated from a calibration curve by linear regression using GraphPad Prism 7.0 software (GraphPad Software, San Diego, CA, USA).

[3] = test system: HepG2 cells; assay: CellTiter-Glo Luminescent Cell Viability Assay, HepG2; type: cell-based, human; conditions: HepG2 cells, 48 h, mean of three independent experiments
Experimental: as §1, §2, §3

IC50 ([2]; Homo sapiens, MCF7, 48 h) | IC50 ([3]; Homo sapiens, HepG2, 48 h) | Compound | IC50 [1] | activity reduction compared to emodin (1) ([2]; MCF-7 cell lines) | IC50 [2] | IC50 [3]
8.99 ± 0.64 µM | 8.22 ± 0.13 µM | Cc1cc(O)c2c(c1)C(=O)c1cc(OCCOC(=O)[C@@H](C)N)cc(O)c1C2=O [Compound 3b, (R)-1-(2-(4,5-Dihydroxy-7-methyl-9,10-dioxo-9,10-dihydroanthracen-2-yloxy)ethoxy)-1-oxopropan-2-aminium 2,2,2-trifluoroacetate] | 33.6 ± 0.36 µM |  |  | 
10.2 ± 0.96 µM | 9.52 ± 0.22 µM | Cc1cc(O)c2c(c1)C(=O)c1cc(OCCOC(=O)[C@H](C)N)cc(O)c1C2=O [Compound 3c, (S)-1-(2-(4,5-Dihydroxy-7-methyl-9,10-dioxo-9,10-dihydroanthracen-2-yloxy)ethoxy)-1-oxopropan-2-aminium 2,2,2-trifluoroacetate] | 37.3 ± 0.78 µM |  |  | 
22.6 ± 0.9 µM | 11.4 ± 0.77 µM | Cc1cc(O)c2c(c1)C(=O)c1cc(OCCOC(=O)[C@@H](N)c3ccc(F)cc3)cc(O)c1C2=O [Compound 3v, (S)-2-(2-(4,5-Dihydroxy-7-methyl-9,10-dioxo-9,10-dihydroanthracen-2-yloxy)ethoxy)-1-(4-fluorophenyl)-2-oxoethanaminium 2,2,2-trifluoroacetate] |  |  |  | 
42.4 ± 1.16 µM | 31.5 ± 2.72 µM | Cc1cc(O)c2c(c1)C(=O)c1cc(OCCOC(=O)[C@H](N)Cc3ccccc3)cc(O)c1C2=O [Compound 3w, (R)-1-(2-(4,5-Dihydroxy-7-methyl-9,10-dioxo-9,10-dihydroanthracen-2-yloxy)ethoxy)-1-oxo-3-phenyl-propan-2-aminium 2,2,2-trifluoroacetate] |  |  |  | 
18.1 ± 0.32 µM | 16.2 ± 0.36 µM | Cc1cc(O)c2c(c1)C(=O)c1cc(OCCOC(=O)[C@@H](N)Cc3ccccc3)cc(O)c1C2=O [Compound 3x, (S)-1-(2-(4,5-Dihydroxy-7-methyl-9,10-dioxo-9,10-dihydroanthracen-2-yloxy)ethoxy)-1-oxo-3-phenyl-propan-2-aminium 2,2,2-trifluoroacetate] |  |  |  | 
38.3 ± 1.92 µM | 20.3 ± 1.4 µM | Cc1cc(O)c2c(c1)C(=O)c1cc(OCCOC(=O)[C@H](N)Cc3ccc(O)cc3)cc(O)c1C2=O [Compound 3y, (R)-1-(2-(4,5-Dihydroxy-7-methyl-9,10-dioxo-9,10-dihydroanthracen-2-yloxy)ethoxy)-3-(4-hydroxyphenyl)-1-oxopropan-2-aminium 2,2,2-trifluoroacetate] |  |  |  | 
23.2 ± 0.33 µM | 13.7 ± 0.89 µM | CN[C@H](C)C(=O)OCCOc1cc(O)c2c(c1)C(=O)c1cc(C)cc(O)c1C2=O [Compound 4a, (R)-1-(2-(4,5-Dihydroxy-7-methyl-9,10-dioxo-9,10-dihydroanthracen-2-yloxy)ethoxy)-N-methyl-1-oxo-propan-2-aminium 2,2,2-trifluoroacetate] |  |  |  | 
6.47 ± 0.18 µM | 6.47 ± 0.21 µM | Cc1cc(O)c2c(c1)C(=O)c1cc(OCCCOC(=O)[C@H](C)N)cc(O)c1C2=O [Compound 7b, (S)-1-(3-(4,5-Dihydroxy-7-methyl-9,10-dioxo-9,10-dihydroanthracen-2-yloxy)propoxy)-1-oxopropan-2-aminium 2,2,2-trifluoroacetate] |  |  |  | 
9.11 ± 0.67 µM | 8.58 ± 0.77 µM | Cc1cc(O)c2c(c1)C(=O)c1cc(OCCCCCOC(=O)[C@@H](C)N)cc(O)c1C2=O [Compound 7e, (R)-1-(5-(4,5-Dihydroxy-7-methyl-9,10-dioxo-9,10-dihydroanthracen-2-yloxy)pentyloxy)-1-oxopropan-2-aminium 2,2,2-trifluoroacetate] | 27.7 ± 0.54 µM |  |  | 
15.8 ± 1.45 µM | 10.6 ± 0.97 µM | Cc1cc(O)c2c(c1)C(=O)c1cc(OCCCCCOC(=O)[C@H](C)N)cc(O)c1C2=O [Compound 7f, (S)-1-(5-(4,5-Dihydroxy-7-methyl-9,10-dioxo-9,10-dihydroanthracen-2-yloxy)pentyloxy)-1-oxopropan-2-aminium 2,2,2-trifluoroacetate] | 24.3 ± 0.68 µM |  |  | 
12.6 ± 0.46 µM | 15.2 ± 0.66 µM | Cc1cc(O)c2c(c1)C(=O)c1cc(OCCOCCOC(=O)[C@@H](C)N)cc(O)c1C2=O [Compound 7g, (R)-1-(2-(2-(4,5-Dihydroxy-7-methyl-9,10-dioxo-9,10-dihydroanthracen-2-yloxy)ethoxy)ethoxy)-1-oxo-propan-2-aminium 2,2,2-trifluoroacetate] |  |  |  | 
12.5 ± 0.44 µM | 11.4 ± 0.47 µM | Cc1cc(O)c2c(c1)C(=O)c1cc(OCCOCCOC(=O)[C@H](C)N)cc(O)c1C2=O [Compound 7h, (S)-1-(2-(2-(4,5-Dihydroxy-7-methyl-9,10-dioxo-9,10-dihydroanthracen-2-yloxy)ethoxy)ethoxy)-1-oxo-propan-2-aminium 2,2,2-trifluoroacetate] |  |  |  | 

The next lines start with the compound.

Compound | IC50 ([2]; Homo sapiens, MCF7, 48 h) | IC50 ([3]; Homo sapiens, HepG2, 48 h) | IC50 [1] | activity reduction compared to emodin (1) ([2]; MCF-7 cell lines) | IC50 [2] | IC50 [3]
CN[C@@H](C)C(=O)OCCOc1cc(O)c2c(c1)C(=O)c1cc(C)cc(O)c1C2=O.O=C(O)C(F)(F)F [Compound 4b, (S)-1-(2-(4,5-Dihydroxy-7-methyl-9,10-dioxo-9,10-dihydroanthracen-2-yloxy)ethoxy)-N-methyl-1-oxo-propan-2-aminium 2,2,2-trifluoroacetate] | 68.8 ± 2.25 µM | 40 ± 2.85 µM |  | 6 fold |  | 
Cc1cc(O)c2c(c1)C(=O)c1cc(OCCOC(=O)[C@@H](C)N(C)C)cc(O)c1C2=O [Compound 5a, (R)-1-(2-(4,5-Dihydroxy-7-methyl-9,10-dioxo-9,10-dihydroanthracen-2-yloxy)ethoxy)-N,N-dimethyl-1-oxo-propan-2-aminium 2,2,2-trifluoroacetate] | 25.2 ± 1.92 µM | 18.1 ± 2.79 µM |  |  |  | 
Cc1cc(O)c2c(c1)C(=O)c1cc(OCCOC(=O)[C@H](C)N(C)C)cc(O)c1C2=O [Compound 5b, (S)-1-(2-(4,5-Dihydroxy-7-methyl-9,10-dioxo-9,10-dihydroanthracen-2-yloxy)ethoxy)-N,N-dimethyl-1-oxo-propan-2-aminium 2,2,2-trifluoroacetate] | 16.2 ± 0.67 µM | 18.6 ± 2.07 µM |  |  |  | 
Cc1cc(O)c2c(c1)C(=O)c1cc(OCCCCOC(=O)[C@@H](C)N)cc(O)c1C2=O [Compound 7c, (R)-1-(4-(4,5-Dihydroxy-7-methyl-9,10-dioxo-9,10-dihydroanthracen-2-yloxy)butoxy)-1-oxopropan-2-aminium 2,2,2-trifluoroacetate] | 12.7 ± 0.55 µM | 11.4 ± 1.69 µM |  |  |  | 
Cc1cc(O)c2c(c1)C(=O)c1cc(OCCCCOC(=O)[C@H](C)N)cc(O)c1C2=O [Compound 7d, (S)-1-(4-(4,5-Dihydroxy-7-methyl-9,10-dioxo-9,10-dihydroanthracen-2-yloxy)butoxy)-1-oxopropan-2-aminium 2,2,2-trifluoroacetate] | 14.9 ± 0.57 µM | 11 ± 1.47 µM |  |  |  | 
Cc1cc(O)c2c(c1)C(=O)c1cc(OCCOCCOCCOC(=O)[C@@H](C)N)cc(O)c1C2=O [Compound 7i, (R)-1-(2-(2-(2-(4,5-Dihydroxy-7-methyl-9,10-dioxo-9,10-dihydroanthracen-2-yloxy)ethoxy)ethoxy)ethoxy)-1-oxopropan-2-aminium 2,2,2-trifluoroacetate] | 20.8 ± 1.87 µM | 28.7 ± 0.87 µM |  |  |  | 
Cc1cc(O)c2c(c1)C(=O)c1cc(OCCOCCOCCOC(=O)[C@H](C)N)cc(O)c1C2=O [Compound 7j, (S)-1-(2-(2-(2-(4,5-Dihydroxy-7-methyl-9,10-dioxo-9,10-dihydroanthracen-2-yloxy)ethoxy)ethoxy)ethoxy)-1-oxopropan-2-aminium 2,2,2-trifluoroacetate] | 25.6 ± 0.58 µM | 31.9 ± 2.77 µM |  |  |  | 
Cc1cc(O)c2c(c1)C(=O)c1cc(OCCOCCOCCOCCOC(=O)[C@@H](C)N)cc(O)c1C2=O [Compound 7k, (R)-1-(4,5-Dihydroxy-7-methyl-9,10-dioxo-9,10-dihydroanthracen-2-yloxy)-13-oxo-3,6,9,12-tetraoxapenta-decan-14-aminium 2,2,2-trifluoroacetate] | 37.8 ± 2.44 µM | 37.2 ± 2.44 µM |  |  |  | 
Cc1cc(O)c2c(c1)C(=O)c1cc(OCCOCCOCCOCCOC(=O)[C@H](C)N)cc(O)c1C2=O [Compound 7l, (S)-1-(4,5-Dihydroxy-7-methyl-9,10-dioxo-9,10-dihydroanthracen-2-yloxy)-13-oxo-3,6,9,12-tetraoxa-pentadecan-14-aminium 2,2,2-trifluoroacetate] | 41.8 ± 2.24 µM | 60.6 ± 4.26 µM |  |  |  | 
CC(=O)O[C@H]1C(=O)[C@@]2(C)[C@H]([C@H](OC(=O)c3ccccc3)[C@]3(O)C[C@H](OC(=O)[C@H](O)[C@@H](NC(=O)c4ccccc4)c4ccccc4)C(C)=C1C3(C)C)[C@]1(OC(C)=O)CO[C@@H]1C[C@@H]2O [Paclitaxel, reference compound] | 4.89 ± 0.11 µM | 10.3 ± 0.26 µM |  |  |  | 
(S)-1-(2-(4,5-Dihydroxy-7-methyl-9,10-dioxo-9,10-dihydroanthracen-2-yloxy)ethoxy)-3-(4-hydroxyphenyl)-1-oxopropan-2-aminium 2,2,2-trifluoroacetate [Compound 3z] |  |  |  |  | 17.3 ± 0.26 µM | 14.1 ± 1.22 µM
